Patent publication US20100029689A1, “PHOSPHODIESTERASE 4 INHIBITORS” (MEMORY PHARMACEUTICALS CORPORATION, priority 2008, published 2010)

SMILES | melting point
O=C(O)c1ccc(N(Cc2cncnc2)c2ccc(OC(F)F)c(OC3CCC3)c2)cc1 [Compound 205] | 135.1 to 136.3 °C
CCOc1ccc(N(Cc2cncs2)c2ccc(C(=O)O)cc2)cc1OCC [Compound 170] | 77 to 79 °C
COc1ccc(N(Cc2cccnn2)c2cccc(C(=O)O)c2)cc1OC1CCCC1 [Compound 48] | 178.9 to 184.3 °C
COc1ccc(N(Cc2cnco2)c2ccc(C(=O)O)cc2)cc1OC(C)C [Compound 180] | 60.3 to 61 °C
COc1cc(N(Cc2cccnc2)c2ccc(C(=O)O)cc2)ccc1OC(F)F [Example 14, 4-[(4-Difluoromethoxy-3-methoxy-phenyl)-pyridin-3-ylmethyl-amino]-benzoic acid] | 183.7 to 184.9 °C
CCOc1cc(N(Cc2cnco2)c2cccc(C(=O)O)c2)ccc1OC [Compound 200] | 158 to 159.8 °C
O=C(O)c1ccc(N(Cc2cccnn2)c2ccc(OC(F)F)c(OC(F)F)c2)cc1 [Compound 74] | 162.6 to 164.8 °C
CCOc1cc(N(Cc2cncs2)c2ccc(C(=O)O)cc2)ccc1OC(F)F [Compound 99] | 67 to 69.3 °C
COc1cc(N(Cc2cncnc2)c2ccc(C(=O)O)cc2)ccc1OCC(F)(F)F [Compound 186] | 208.7 to 209.9 °C
CC(C)Oc1cc(N(Cc2cnccn2)c2ccc(C(=O)O)cc2)ccc1OC(F)F [Compound 155] | 132.3 to 135.7 °C
CC(C)Oc1cc(N(Cc2cccnc2)c2cccc(C(=O)O)c2)ccc1OC(F)F [Compound 108] | 57.3 to 58.9 °C
COc1ccc(N(Cc2cncs2)c2cccc(C(=O)O)c2)cc1O[C@@H]1CCOC1 [Compound 70] | 60.3 to 61.9 °C
COc1cc(N(Cc2cncnc2)c2ccc(C(=O)O)cc2)ccc1OC(F)F [Compound 153] | 191.3 to 191.5 °C
CCCCOc1cc(N(Cc2cccnc2)c2ccc(C(=O)O)cc2)ccc1OC(F)F [Compound 128] | 133.7 to 135.1 °C
O=C(O)c1ccc(N(Cc2cncs2)c2ccc(OC(F)F)c(OC(F)F)c2)cc1 [Compound 59] | 144.3 to 145.7 °C
COc1ccc(N(Cc2cncs2)c2cccc(C(=O)O)c2)cc1OC1CCCC1 [Compound 35] | 65.6 to 70.6 °C
COc1cc(N(Cc2cncs2)c2ccc(C(=O)O)cc2)ccc1OC(F)F [Compound 120] | 164.9 to 165.3 °C
O=C(O)c1cccc(N(Cc2cnco2)c2ccc(OC(F)F)c(OCC3CC3)c2)c1 [Compound 198] | 60.2 to 61 °C
COc1ccc(N(Cc2cnco2)c2ccc(C(=O)O)cc2)cc1OC1CCC1 [Compound 184] | 148 to 150.3 °C
CC(C)Oc1cc(N(Cc2cncs2)c2ccc(C(=O)O)cc2)ccc1OC(F)F [Compound 106] | 158 to 158.5 °C
CCOc1cc(-c2ncc(CN(c3ccc(C(=O)O)cc3)c3ccc(OC(F)F)c(OCC)c3)o2)ccc1OC(F)F [Compound 273] | 178.4 to 178.9 °C
COc1ccc(N(Cc2cccnc2)c2ccc(C3NC(=O)NC3=O)cc2)cc1OC1CCCC1 (centres unmarked) [Compound 245] | 108 to 112.5 °C
COc1ccc(N(Cc2cncs2)c2ccc(C(=O)O)cc2)cc1O[C@@H]1CCOC1 [Compound 71] | 60.3 to 60.8 °C

SMILES | melting point
COc1ccc(N(Cc2cncnc2)c2ccc(C(=O)O)cc2)cc1OCC1CC1 [Compound 195] | 185.6 to 187.2 °C
COc1ccc(N(Cc2cncs2)c2ccc(C(=O)O)cc2)cc1OC(C)C [Compound 131] | 67.8 to 69.1 °C
COc1ccc(N(Cc2cnc(N(C)C)nc2)c2ccc(C(=O)O)cc2)cc1OC1CCCC1 [Compound 51] | 95.9 to 99.5 °C
CC(C)Oc1cc(N(Cc2cccnc2)c2ccc(C(=O)O)cc2)ccc1OC(F)F [Compound 107] | 66.5 to 67.9 °C
COc1ccc(N(Cc2cncs2)c2ccc(C(=O)O)cc2)cc1OCC1CC1 [Compound 72] | 128.7 to 129.4 °C
CCOc1cc(N(Cc2cncnc2)c2ccc(C(=O)O)cc2)ccc1OC [Compound 196] | 190.9 to 191.9 °C
COc1ccc(N(Cc2ccc(=O)[nH]c2)c2ccc(C(=O)O)cc2)cc1OC1CCCC1 [Compound 29] | 143.7 to 145.9 °C
CC(C)Oc1cc(N(Cc2cncs2)c2cccc(C(=O)O)c2)ccc1OC(F)F [Compound 109] | 58.6 to 60 °C
COc1ccc(N(Cc2cncs2)c2ccc(C(=O)O)cc2)cc1OC1CCCC1 [Compound 40] | 88 to 90.3 °C
O=C(O)c1ccc(N(Cc2cncnc2)c2ccc(OC(F)F)c(OC(F)F)c2)cc1 [Compound 80] | 186.7 to 187.4 °C
COc1ccc(N(Cc2cn[nH]c2)c2ccc(C(=O)O)cc2)cc1OC1CCCC1 [Compound 39] | 108.9 to 112.3 °C
O=C(O)c1ccc(N(Cc2cncs2)c2ccc(OC(F)F)c(OC3CCCC3)c2)cc1 [Compound 104] | 67.3 to 69.7 °C
COc1ccc(N(Cc2cnc(N(C)C)nc2)c2cccc(C(=O)O)c2)cc1OC1CCCC1 [Compound 52] | 82 to 84.7 °C
CCOc1cc(N(Cc2cnco2)c2ccc(C(=O)O)cc2)ccc1OC(F)F [Compound 144] | 111.1 to 113 °C
CNS(=O)(=O)c1ccc(N(Cc2cncs2)c2ccc(OC(F)F)c(OC(F)F)c2)cc1 [Compound 165] | 105.5 to 106.4 °C
COc1cc(N(Cc2cnccn2)c2ccc(C(=O)O)cc2)ccc1OC(F)F [Compound 154] | 157.2 to 157.7 °C
COc1ccc(N(Cc2cncnc2)c2ccc(C(=O)O)cc2)cc1OC1CCCC1 [Compound 43] | 156.6 to 159.8 °C
COc1ccc(N(Cc2cscn2)c2cccc(C(=O)O)c2)cc1OC1CCCC1 [Compound 45] | 75.5 to 77.7 °C
COc1ccc(N(Cc2cncs2)c2ccc(C(=O)O)cc2)cc1OC [Compound 138] | 86.4 to 88.3 °C
COc1ccc(N(CC2CCNCC2)c2cccc(C(=O)O)c2)cc1OC1CCCC1 [Compound 50] | 228.8 to 232.1 °C
O=C(O)c1ccc(N(Cc2cncnc2)c2ccc(OC(F)F)c(OCC3CC3)c2)cc1 [Compound 168] | 265.1 to 266.6 °C
CC(C)Oc1cc(N(Cc2cncs2)c2cncc(C(=O)O)c2)ccc1OC(F)F [Compound 160] | 121.7 to 123.1 °C
CCOc1cc(N(Cc2cncnc2)c2ccc(C(=O)O)cc2)ccc1OC(F)F [Compound 143] | 165.3 to 165.9 °C

SMILES | melting point
COc1ccc(N(Cc2cncnc2)c2ccc(C(=O)O)cc2)cc1OC1CCC1 [Compound 193] | 174 to 177.9 °C
COc1ccc(N(Cc2cccnc2)c2cccc(C3NC(=O)NC3=O)c2)cc1OC1CCCC1 (centres unmarked) [Compound 239] | 99.7 to 105 °C
COc1ccc(N(Cc2cncs2)c2cccc(C(=O)O)c2)cc1OCC1CC1 [Compound 73] | 137.4 to 139.4 °C
CCOc1cc(N(Cc2cncs2)c2ccc(C(=O)O)cc2)ccc1OC [Compound 130] | 73.1 to 74.5 °C
CCOc1cc(N(Cc2cnc(C)s2)c2ccc(C(=O)O)cc2)ccc1OC(F)F [Compound 225] | 73.1 to 74.1 °C
O=C(O)c1ccc(N(Cc2cncnc2)c2ccc(OC(F)F)c(OCc3ccccc3)c2)cc1 [Compound 214] | 157.4 to 158.2 °C
COc1ccc(N(Cc2cncs2)c2ccc(C(=O)O)cc2)cc1OC(F)F [Compound 150] | 86.4 to 88.3 °C
O=C(O)c1ccc(N(Cc2cnco2)c2ccc(OC(F)F)c(OC(F)F)c2)cc1 [Compound 141] | 132.4 to 135 °C
COc1ccc(N(Cc2cncs2)c2cccc(C(=O)O)c2)cc1OC(F)F [Compound 149] | 86.4 to 88.3 °C
COc1ccc(N(Cc2cnco2)c2ccc(C(=O)O)cc2)cc1OCC1CC1 [Compound 183] | 160 to 161.7 °C
O=C(O)Cc1ccc(N(Cc2cccnc2)c2ccc(OC(F)F)c(OC(F)F)c2)cc1 [Compound 69] | 107.4 to 108.1 °C
O=C(O)c1cccc(N(Cc2cncs2)c2ccc(OC(F)F)c(OC3CCCC3)c2)c1 [Compound 110] | 56.3 to 58 °C
O=C(O)c1ccc(N(Cc2cnccn2)c2ccc(OC(F)F)c(OCC3CC3)c2)cc1 [Compound 157] | 81.2 to 82.3 °C
COc1ccc(N(Cc2cncnc2)c2ccc(C(=O)O)cc2)cc1OC(C)C [Compound 192] | 181.7 to 183.6 °C
COc1cc(N(Cc2cccnc2)c2ccc(C(=O)O)cc2)ccc1OC(F)F [Compound 124] | 182.4 to 183.4 °C
CCOc1cc(N(Cc2cnco2)c2ccc(C(=O)O)cc2)ccc1OC [Compound 181] | 175.6 to 176.9 °C
O=C(O)c1ccc(N(Cc2cnccn2)c2ccc(OC(F)F)c(OC(F)F)c2)cc1 [Compound 142] | 158 to 161.1 °C
CCCCOc1cc(N(Cc2cncs2)c2ccc(C(=O)O)cc2)ccc1OC(F)F [Compound 129] | 158.7 to 159.5 °C
O=C(O)c1cccc(N(Cc2cnccn2)c2ccc(OC(F)F)c(OCC3CC3)c2)c1 [Compound 159] | 72.7 to 73.1 °C
CCOc1cc(N(Cc2cccnc2)c2ccc(C(=O)O)cc2)ccc1OC(F)F [Example 11, 4-[(4-Difluoromethoxy-3-ethoxy-phenyl)-pyridin-3-ylmethyl-amino]-benzoic acid] | 177.6 to 178.9 °C
O=C1NC(=O)C(c2cccc(N(Cc3cncs3)c3ccc(OC(F)F)c(OC(F)F)c3)c2)N1 (centres unmarked) [Compound 257] | 63.1 to 82.3 °C
CC(C)Oc1cc(N(Cc2cnccn2)c2cccc(C(=O)O)c2)ccc1OC(F)F [Compound 156] | 81.2 to 82 °C
